The test system of one series is acinar cells. It counts as cell-based. The note with it: for prevention of linoleic acid induced LDH leakage: 300 μM LA, 30 μM BAPTA or 1 mM EGTA, 90 minutes and 3 hours. From the text: Harvesting cells: Primary acinar cells from wild type mice (C57B6) were harvested and used as described previously. Viability, confirmed by trypan blue exclusion, was >95%. […] These were used in the individual experiments. Data presented is representative of 3 or more experiments.
Acinar culture: Acinar culture was done as described previously to study inflammatory mediator upregulation.
Calcium imaging: Acinar cells loaded with fura-2AM as described previously on 35-mm glass bottom culture dishes (MatTek corporation, Ashland, Mass.) were imaged on temperature-controlled motorized stage of an Olympus IX81 inverted microscope (Olympus America Inc, Melville, N.Y.) with a 20×0.70 NA objective and a QImaging Retiga EXi CCD camera (QImaging, Burnaby, Canada). Baseline images were taken, and cells with extremely bright or dim fluorescence were omitted. Fatty acids (linolenic, linoleic, oleic, stearic, and palmitic, 100-1200 μM final concentration) were added, and cytosolic calcium levels [Cai] were determined by alternate excitation at 340 nm and 380 nm, measuring emission at 510 nm. […] Image acquisition was with the MetaMorph 7.5 Imaging System (Molecular Devices, Downington, Pa.) using the MetaMorph 6.3 software. The 340/380 emission ratio were averaged for 7-25 acini per field, with background subtraction. Data presented is a mean from separate experiments.
Visceral fat triglyceride composition: The visceral fat triglyceride composition analysis was done at Kennedy Krieger Institute (Baltimore, Md.). Briefly, total lipids were extracted by the method of Folch. The total lipids were weighed and then separated into 4 fractions by column chromatography on silicic acid. The second fraction has the mono-, di- and triglycerides, the non-esterified fatty acids, and ceramides; 400 micrograms of the second fraction was taken and purified, and non-esterified acids, triglycerides, and diglycerides were collected by thin-layer chromatography on Silica Gel G plates. The fatty acids were derivatized and analyzed by GCMS as their pentafluorbenzylbromide esters. ATP levels, cytochrome C release, and % LDH leakage were measured as previously described. Apoptosis was measured by active caspase-3 [western blotting, activity assays (Enzcheck, Invitrogen, Carlsbad, Calif.)], TUNEL assays, and Hoechst dye nuclear incorporation (8 mg/ml Hoechst 33342 added for 15 minutes after treatment). […] Results were reported as % of cells with given nuclear changes. These were counter stained with PI (1 μM) to stain necrotic cells (FIG. 7A, B, C) and imaged with a Zeiss Meta dual fluorescence confocal microscope. PI-positive cells were counted as late apoptosis or necrosis. […] Autophagy was studied by western blotting for LC3-I and II. RNA was extracted using Trizol (Invitrogen, Carlsbad, Calif.). mRNA levels of TNF-α, CXCL1, and CXCL2 were measured as described previously using real time-PCR performed on an ABI Prism 7000 Sequence Detection System (Applied Biosystems, Foster City, Calif.) on proprietary Taqman Gene Expression assay reagents (Applied Biosystems). Mitochondrial complex assays and citrate synthase assay were done as described previously.
For orientation: LDH in the medium is a marker of cell lysis.

In a further series the test system is Male Wistar rats. In words: Intraductal infusion of glyceryl trilinoleate (GTL) pancreatitis. It counts as in vivo. The note with it: for mortality: intraductal GTL alone, GTL+orlistat 75 mg/ml, GTL+cetilistat 25 mg/ml, followed to day 5; for gross pancreatic appearance: hemorrhages and necrosis: intraductal GTL with or without lipase inhibitor. As for the experimental part: Experiments were performed using a model, the technique of which is established and well described in rats (1, 2, 4, 7). This involves infusion of agents into the pancreatic duct to cause acute pancreatitis (1, 2, 4, 7). We will refer to this technique as “intraductal infusion”. We compared the severity of pancreatic damage and survival of rats after intraductal infusion of Glyceryl trilinoleate with and without the lipase inhibitor orlistat. In addition, we used a different lipase inhibitor-cetilistat (3, 6), and studied its efficacy in improving survival of rats in intraductal infusion pancreatitis induced with Glyceryl trilinoleate (GTL).
Male Wistar rats (250-350 gm), were anesthetized. Intraductal infusion of 0.1 ml (n=5) or 0.2 ml (n=5) of GTL (Sigma-Aldrich corporation) alone or GTL+orlistat (Caymen chemical, Ann Arbor, Mich.) (75 mg/ml, 0.1 ml n=5 or 0.2 ml n=5) or GTL+cetilistat (Jinan Wedo Industrial Co., Ltd., Jinan City, Shandong China) (25 mg/ml, 0.2 ml, n=10) was done as described previously (1, 2, 4, 7). All animals were given pain control (buprenorphine 200 mcg/kg BID), Cefazolin (100 mg/kg), and 10 cc saline subcutaneously BID as per the IACUC protocol. These were followed for survival.

[1] abbreviates: in combination with GTL, at necropsy.

Molecules are shown by their SMILES. Entries after “also recorded” stand apart in the source; their conditions may differ. Where two headings read alike, the source gives them in different places.

The record followed here is patent US9943499B2, “Lipase inhibitors for the treatment of pancreatitis and organ failure” (priority 2011, dated 2018).

For `CCCCC/C=C\C/C=C\CCCCCCCC(=O)O` [linoleic acid], in the series on acinar cells (200 μM fatty acid (sub-lethal)), the “acinar mRNA levels of TNF-α, CXCL1 and CXCL2” value is given as “increased”. In the series on acinar cells (300 μM linoleic acid), the “autophagy (LC3-II) and apoptosis (active caspase3)” value is listed as “not activated”.

For the compound `O=C(O)CN(CC(=O)O)c1ccccc1OCCOc1ccccc1N(CC(=O)O)CC(=O)O` [BAPTA], the “prevention of linoleic acid induced LDH leakage” value in the series with acinar cells is given as “partially prevented”.

As to `O=C(O)CN(CCOCCOCCN(CC(=O)O)CC(=O)O)CC(=O)O` [EGTA], in the series with acinar cells, the “prevention of linoleic acid induced LDH leakage” value was “ineffective”. Moreover, the LDH leakage in the series on acinar cells (300 μM linoleic acid, EGTA 1 mM, 90 minute) is listed as 21.2±8.3%; in the series on acinar cells (300 μM linoleic acid, EGTA 1 mM, 3 hour) it was 54.6±6.4%.

`CCCCCCCCCCCCCCCCOc1nc2ccc(C)cc2c(=O)o1` [cetilistat]: the mortality in the series with Male Wistar rats (dead/total) was 2/10. For the same compound, in the series on Male Wistar rats (setting [1]), the “lung injury (TUNEL positive nuclei)” value is “nearly completely prevented” and the “renal injury (TUNEL positive nuclei)” value is given as “nearly completely prevented; also recorded: absence of staining TUNEL positive nuclei”. Besides, the “lung injury (TUNEL positive nuclei)” value with Male Wistar rats (in combination with GTL, at necropsy, listed as Cetilistat) is given as “absence of TUNEL positive nuclei”. The “gross pancreatic appearance: hemorrhages and necrosis” value in the series on Male Wistar rats is “prevented the hemorrhages and necrosis up to 5 days”.

For the compound `CCCCC/C=C\C/C=C\CCCCCCCC(=O)OCC(COC(=O)CCCCCCC/C=C\C/C=C\CCCCC)OC(=O)CCCCCCC/C=C\C/C=C\CCCCC` [GTL, glyceryl trilinoleate], the mortality in the series on Male Wistar rats (dead/total) is given as 10/10. Moreover, in the series with Male Wistar rats (dead/total, intraductal GTL without further treatment), the first day mortality was 10/10. Besides, in the series with Male Wistar rats, the “gross pancreatic appearance: hemorrhages and necrosis” value was “caused severe hemorrhages, and near total necrosis of the gland within 24 hours”.

Turning to `C/C=C(/C)C(=O)O[C@H]1C(C)=C2[C@H]([C@@H]1OC(=O)CCCCCCC)[C@@](C)(OC(C)=O)C[C@H](OC(=O)CCC)[C@@]1(O)[C@H]2OC(=O)[C@@]1(C)O` [thapsigargin], in the series on acinar cells (1 μM thapsigargin, EGTA 1 mM), the “600 μM LA induced intra-acinar calcium (Cai) increase” value is “prevents”.
